{"source": "patent US20030216330A1", "about": "“Parenteral, intravenous, and oral administration of oxazolidinones for treating diabetic foot infections” (PHARMACIA & UPJOHN, priority 2002, published 2003)", "key": {"diabetic foot infection [1]": {"system": "diabetic foot infection", "test": "Open-label, comparator-controlled trial in patients with diabetic foot infection: clinical cure", "assay_type": "in vivo, human", "description": "(§1) The clinically evaluable population comprised 317 patients, most of whom were male and white with a mean age of 63 years old. Patients with critical limb ischemia were excluded, but those with osteomyelitis could be included. […] Treatment was for 7-28 days with the mean treatment duration shown below in Table 1. Patients could be switched to PO therapy at the investigator's discretion.\n(§2) The most common baseline pathogens were S. aureus (158 isolates, 31 of which were methicillin-resistant S. aureus (MRSA), coagulase-negative staphylococci (65), enterococci (60) and Streptococcus agalactiae (52). To cover methicillin-resistant S. aureus in the aminopenicillin regimen, IV vancomycin (1 g every 12 h or per dosing guidelines) was added to the amino/β-LI treated patients with MRSA isolated from the study wound. To cover possible resistant gram-negative rods in either regimen, IV aztreonam (1-2 g, IV, every 8-12 h) was permitted in both treatment arms for suspected/documented gram-negative pathogens. This is shown below in Table 2.\nInfections were defined by clinical signs and symptoms and categorized as cellulites, deep soft tissue infections, infected ulcer, septic arthritis, paronychia, abscess or osteomyelitis. […] The most common types (sometimes combined) of infections were: ulcers (78%); cellulitis (45%); deep soft tissue (15%); paronychia (6%). Most patients in both arms were treated as outpatients (66%) with only oral therapy (73%) and with a single agent (87%). Clinical characteristics of the infected sites at baseline were similar in the treatment groups; most common were tenderness (97%), induration (95%), local warmth (92%), non-purulent drainage (82%) and erythema (47%).\nDebridement and other surgical procedures (short of complete resection/amputation) were allowed and wounds were off-loaded (mechanical stress on the wounded area was avoided) as needed. There were no significant differences in adverse events in the two treatment arms."}, "[2]": {"system": "Staphylococcus agalactiae", "test": "Clinical outcome by baseline pathogen (MITT population)", "assay_type": "in vivo", "settings": "baseline pathogen S. agalactiae", "description": "as §1, §2"}, "[3]": {"system": "baseline gram-positive pathogen", "test": "Microbiological success rate in the diabetic foot infection trial", "assay_type": "in vivo, human", "description": "as §1\n(§3) Resistance to ampicillin/sulbactam was documented in 1 S. aureus isolate."}, "isolated pathogens": {"system": "isolated pathogens", "test": "Resistance of pathogens isolated in the trial to study medication", "settings": "at baseline or developed during the trial", "description": "as §3"}, "diabetic foot infection [4]": {"system": "diabetic foot infection", "test": "Example 3: parenteral treatment of a human with a diabetic foot infection", "assay_type": "in vivo", "settings": "600 mg parenteral, two times daily for 7-28 days; person", "description": "A 70 kilo […] with a history of diabetes and infected foot ulcerations, also known as diabetic foot, is treated with a parenteral preparation of 600 mg (S)-N-[[3-[3-fluoro-4-[4-(morpholinyl)[…]]-2-oxo-5-oxazolidinyl]methyl]acetamide. The preparation is administered two times daily for 7-28 days. The patient is evaluated by clinical observations and with x-rays for osteomyelitis, including with a “probe-to bone” test and a bone biopsy if the patient has an open wound."}, "[5]": {"system": "aerobic gram positive bacteria", "settings": "including streptococci, MRSA and VRE; cited from earlier work"}}, "data": [{"compound": "CC(=O)NC[C@H]1CN(c2ccc(N3CCOCC3)c(F)c2)C(=O)O1", "note": "[Linezolid, (S)-N-[[3-[3-fluoro-4-(4-morpholinyl)phenyl]-2-oxo-5-oxazolidinyl]methyl]acetamide]", "values": [{"measurement": "Clinical Efficacy (% Efficacy of the Evaluatable Population)", "setting": "diabetic foot infection [1]; clinically evaluable population, 317 patients", "result": 83, "unit": "%"}, {"measurement": "clinical outcome versus amino/β-LI", "setting": "diabetic foot infection [1]; infected ulcers and non-osteomyelitis cases", "result": "clinically superior"}, {"measurement": "clinically cured patients", "setting": "diabetic foot infection [1]; infected ulcers, FIG. 2", "result": 81.4, "unit": "%"}, {"measurement": "Clinical cure rates", "setting": "diabetic foot infection [1]; intent-to-treat (ITT) and clinically evaluable (CE) populations, FIG. 1", "result": "comparable"}, {"measurement": "overall clinical and micro-biological outcomes versus amino/β-LI", "setting": "diabetic foot infection [1]; mostly given alone, PO, to outpatients", "result": "at least as effective overall as amino/β-LI"}, {"measurement": "clinical cure rate", "setting": "diabetic foot infection [1]; patients with osteomyelitis (n=60)", "result": 61.0, "unit": "%"}, {"measurement": "clinical cure rate", "setting": "diabetic foot infection [1]; patients without osteomyelitis", "result": 86, "unit": "%"}, {"measurement": "clinical cure rate versus comparator", "setting": "[2]", "result": "significantly higher clinical cure rate"}, {"measurement": "microbiological success rates", "setting": "[3]; microbiologically evaluable (ME) patients", "result": 72.2, "unit": "%"}, {"measurement": "Microbiol. Efficacy (% Efficacy of the Evaluatable Population)", "setting": "[3]; microbiologically evaluable population, 212 patients", "result": 72, "unit": "%"}, {"measurement": "resistance of isolated pathogens to the study drug", "setting": "isolated pathogens", "result": "None of the isolated pathogens was resistant"}, {"measurement": "clinical observation of the ulcerated area after the course of treatment", "setting": "diabetic foot infection [4]", "result": "tissue destruction in the ulcerated area has visibly ceased and tissue repair has begun"}, {"measurement": "antibacterial activity", "setting": "[5]", "result": "active against almost all aerobic gram positive bacteria"}]}]}
